# Data published in patent US10669283B2, “Compound and pharmacologically acceptable salt thereof” (MEIJI SEIKA PHARMA CO., LTD., priority 2016, dated 2020).
# System: PDE4
# Assay: PDE4 inhibition, scintillation proximity assay (SPA);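 also: A below 100 nM B 100 to below 1000 nM C 1000 nM or more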
# Type: biochemical
# Settings: scintillation proximity assay (SPA); evaluated as classes A, B, C; read-out: PDE4 Inhibitory Activity (concentration for the inhibition rate of 50%)
# Procedure, shortened: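 Scintillation proximity read-out: [2,8-3H]-cAMP hydrolysis by PDE4 ran 120 min at room temperature in Tris-HCl pH 7.4 buffer with 8.3 mM MgCl2, 1.7 mM EGTA and 3 mg/mL BSA. Bead-bound product (YSi-SPA with ZnSO4, 15 min) counted; blank lacks enzyme, control has DMSO only.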
row,Structure (SMILES),IC50 [nM]
1,"CSc1cc(-c2nccs2)c2oc(N3CC4CCCC(C3)N4)nc2c1 [Example 41, 2-(3,9-Diazabicyclo[3.3.1]nonan-3-yl)-5-(methylthio)-7-(thiazol-2-yl)benzo[d]oxazole]",< 100
2,"FC(F)(F)Oc1c(Cl)cc(-c2nccs2)c2oc(N3CC4CCCC(C3)N4)nc12 [Example 2, 2-(3,9-Diazabicyclo[3.3.1]nonan-3-yl)-5-chloro-7-(thiazol-2-yl)-4-(trifluoromethoxy)benzo[d]oxazole]",< 100
3,"CC(C)(O)C(F)(F)Oc1ccc(-c2cscn2)c2oc(N3CC4CCC(C3)N4)nc12 [Example 308, 1-((2-(3,8-Diazabicyclo[3.2.1]octan-3-yl)-7-(thiazol-4-yl)benzo[d]oxazol-4-yl)oxy)-1,1-difluoro-2-methylpropan-2-ol]",< 100
4,"CON=C(C)c1cc(-c2nccs2)c2oc(N3CC4CCC(C3)N4)nc2c1OC(F)(F)F (mixture of isomers) [Example 218, (E)-1-(2-(3,8-diazabicyclo[3.2.1]octan-3-yl)-7-(thiazol-2-yl)-4-(trifluoromethoxy)benzo[d]oxazol-5-yl)ethan-1-one O-methyloxime and (Z)-1-(2-(3,8-diazabicyclo[3.2.1]octan-3-yl)-7-(thiazol-2-yl)-4-(trifluoromethoxy)benzo[d]oxazol-5-yl)ethan-1-one O-methyloxime]",< 100
5,"CC(O)C(F)(F)OC(c1ccc(-c2nccs2)c2oc(N3CC4CC(C3)N4)nc12)C(F)(F)F (stereo not shown) [Example 265, 1-(1-(2-(3,6-Diazabicyclo[3.1.1]heptan-3-yl)-7-(thiazol-2-yl)benzo[d]oxazol-4-yl)-2,2,2-trifluoroethoxy)-1,1-difluoropropan-2-ol]",< 100
6,"OCCOC(c1ccc(-c2nccs2)c2oc(N3CC4CCC(C3)N4)nc12)C(F)(F)F (stereo not shown) [Example 225, 2-(1-(2-(3,8-Diazabicyclo[3.2.1]octan-3-yl)-7-(thiazol-2-yl)benzo[d]oxazol-4-yl)-2,2,2-trifluoroethoxy)ethan-1-ol]",< 100
7,"c1csc(-c2ccc(OC3CCOC3)c3nc(N4CC5CCC(C4)N5)oc23)n1 (stereo not shown) [Example 84, 2-(3,8-Diazabicyclo[3.2.1]octan-3-yl)-4-((tetrahydrofuran-3-yl)oxy)-7-(thiazol-2-yl)benzo[d]oxazole]",< 100
8,"OC(O)(c1cc(-c2nccs2)c2oc(N3CC4CCCC(C3)N4)nc2c1)C(F)(F)F [Example 156, 1-(2-(3,9-Diazabicyclo[3.3.1]nonan-3-yl)-7-(thiazol-2-yl)benzo[d]oxazol-5-yl)-2,2,2-trifluoroethane-1,1-diol]",< 100
9,"CC(C)(O)CC(F)(F)Oc1ccc(-c2nccs2)c2oc(N3CC4CC(C3)N4)nc12 [Example 295, 4-((2-(3,6-Diazabicyclo[3.1.1]heptan-3-yl)-7-(thiazol-2-yl)benzo[d]oxazol-4-yl)oxy)-4,4-difluoro-2-methylbutan-2-ol]",< 100
10,"N#CCOC(c1cc(-c2nccs2)c2oc(N3CC4CCC(C3)N4)nc2c1)C(F)(F)F (stereo not shown) [Example 153, 2-(1-(2-(3,8-Diazabicyclo[3.2.1]octan-3-yl)-7-(thiazol-2-yl)benzo[d]oxazol-5-yl)-2,2,2-trifluoroethoxy)acetonitrile]",< 100
11,"CCOC(c1ccc(-c2nccs2)c2oc(N3CC4CC(C3)N4)nc12)C(F)(F)F (stereo not shown) [Example 224, 2-(3,6-Diazabicyclo[3.1.1]heptan-3-yl)-4-(1-ethoxy-2,2,2-trifluoroethyl)-7-(thiazol-2-yl)benzo[d]oxazole]",< 100
12,"OC1CCC(Oc2ccc(-c3nccs3)c3oc(N4CC5CC(C4)N5)nc23)CC1 (stereo not shown) [Example 305, 4-((2-(3,6-Diazabicyclo[3.1.1]heptan-3-yl)-7-(thiazol-2-yl)benzo[d]oxazol-4-yl)oxy)cyclohexan-1-ol]",< 100
13,"C[S+]([O-])c1cc(-c2nccs2)c2oc(N3CC4CCCC(C3)N4)nc2c1 (stereo not shown) [Example 44, 2-(3,9-Diazabicyclo[3.3.1]nonan-3-yl)-5-(methylsulfinyl)-7-(thiazol-2-yl)benzo[d]oxazole]",< 100
14,"CCOC(=O)c1cc(-n2cccn2)c2oc(N3CC4COCC(C3)N4)nc2c1 [Example 92, Ethyl 2-(3-oxa-7,9-diazabicyclo[3.3.1]nonan-7-yl)-7-(1H-pyrazol-1-yl)benzo[d]oxazole-5-carboxylate]",> 1000
15,"COC1(c2cc(-c3nccs3)c3oc(N4CC5CC(C4)N5)nc3c2OC(F)(F)F)CC1 [Example 283, 2-(3,6-Diazabicyclo[3.1.1]heptan-3-yl)-5-(1-methoxycyclopropyl)-7-(thiazol-2-yl)-4-(trifluoromethoxy)benzo[d]oxazole]",< 100
16,"CN(C)C(=O)c1cc(-c2nccs2)c2oc(N3CC4CCC(C3)N4)nc2c1 [Example 94, 2-(3,8-Diazabicyclo[3.2.1]octan-3-yl)-N,N-dimethyl-7-(thiazol-2-yl)benzo[d]oxazole-5-carboxamide]",< 100
17,"FC(F)(F)Oc1c(Cl)cc(-c2ccccn2)c2oc(N3CC4CCC(C3)N4)nc12 [Example 7, 2-(3,8-Diazabicyclo[3.2.1]octan-3-yl)-5-chloro-7-(pyridin-2-yl)-4-(trifluoromethoxy)benzo[d]oxazole]",< 100
18,"FC(F)(F)c1cc(-c2nccs2)c2oc(N3CC4CCC(C3)N4)nc2c1 [Example 51, 2-(3,8-Diazabicyclo[3.2.1]octan-3-yl)-7-(thiazol-2-yl)-5-(trifluoromethyl)benzo[d]oxazole]",< 100
19,"N#CC1CC(Oc2ccc(-c3nccs3)c3oc(N4CC5CC(C4)N5)nc23)C1 (stereo not shown) [Example 266, 3-((2-(3,6-Diazabicyclo[3.1.1]heptan-3-yl)-7-(thiazol-2-yl)benzo[d]oxazol-4-yl)oxy)cyclobutane-1-carbonitrile]",< 100
20,"CCOC(=O)c1cc(-n2cccn2)c2oc(N3CC4CCC(C3)N4)nc2c1 [Example 90, Ethyl 2-(3,8-diazabicyclo[3.2.1]octan-3-yl)-7-(1H-pyrazol-1-yl)benzo[d]oxazole-5-carboxylate]",100 to 1000
21,"CC(C)(O)C(F)(F)Oc1ccc(-c2ccccn2)c2oc(N3CC4CC(C3)N4)nc12 [Example 289, 1-((2-(3,6-Diazabicyclo[3.1.1]heptan-3-yl)-7-(pyridin-2-yl)benzo[d]oxazol-4-yl)oxy)-1,1-difluoro-2-methylpropan-2-ol]",< 100
22,"O=C(c1cc(-c2nccs2)c2oc(N3CC4CCC(C3)N4)nc2c1)N1CCCCC1 [Example 96, (2-(3,8-Diazabicyclo[3.2.1]octan-3-yl)-7-(thiazol-2-yl)benzo[d]oxazol-5-yl)(piperidin-1-yl)methanone]",< 100
23,"NC(=O)COC(c1ccc(-c2nccs2)c2oc(N3CC4CC(C3)N4)nc12)C(F)(F)F (stereo not shown) [Example 256, 2-(1-(2-(3,6-Diazabicyclo[3.1.1]heptan-3-yl)-7-(thiazol-2-yl)benzo[d]oxazol-4-yl)-2,2,2-trifluoroethoxy)acetamide]",< 100
24,"O=C(O)c1ccc(-c2nccs2)c2oc(N3CC4CCC(C3)N4)nc12 [Example 238, 2-(3,8-Diazabicyclo[3.2.1]octan-3-yl)-7-(thiazol-2-yl) benzo[d]oxazole-4-carboxylic acid]",< 100
25,"CC(C)Oc1cc(-c2nccs2)c2oc(N3CC4CCC(C3)N4)nc2c1 [Example 68, 2-(3,8-Diazabicyclo[3.2.1]octan-3-yl)-5-isopropoxy-7-(thiazol-2-yl)benzo[d]oxazole]",< 100
